This note sets out measurements from US10336725B2, “Chemical compounds” (AstraZeneca AB, priority 2014, dated 2019).

Structures can show the parent of a compound that is named as a salt.

The target in the assay is T1, Sodium Channel ENaC (Homo sapiens, UniProt P37088+P51168+P51170).
T1 construct: Human primary bronchial epithelial cells differentiated at air-liquid interface (ALI); host or cells: Human primary bronchial epithelial cells differentiated at air-liquid interface
T1 sequence (P37088 1-669): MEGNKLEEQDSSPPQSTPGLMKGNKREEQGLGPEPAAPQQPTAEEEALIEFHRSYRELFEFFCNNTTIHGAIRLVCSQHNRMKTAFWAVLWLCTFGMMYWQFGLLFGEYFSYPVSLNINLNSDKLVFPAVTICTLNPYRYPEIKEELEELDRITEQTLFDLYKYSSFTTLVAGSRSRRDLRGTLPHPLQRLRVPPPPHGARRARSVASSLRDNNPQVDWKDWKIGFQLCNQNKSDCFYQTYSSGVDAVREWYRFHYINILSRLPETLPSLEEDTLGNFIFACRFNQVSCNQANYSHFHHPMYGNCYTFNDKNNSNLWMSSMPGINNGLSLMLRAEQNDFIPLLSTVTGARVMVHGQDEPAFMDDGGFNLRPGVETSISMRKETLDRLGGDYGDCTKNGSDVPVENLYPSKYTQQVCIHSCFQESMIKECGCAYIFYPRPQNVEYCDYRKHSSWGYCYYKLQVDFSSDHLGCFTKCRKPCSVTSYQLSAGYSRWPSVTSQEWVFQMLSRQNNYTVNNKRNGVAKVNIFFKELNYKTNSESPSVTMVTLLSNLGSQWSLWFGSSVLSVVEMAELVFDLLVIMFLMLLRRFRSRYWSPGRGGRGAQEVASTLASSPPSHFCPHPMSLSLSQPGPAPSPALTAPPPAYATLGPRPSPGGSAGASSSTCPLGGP
T1 sequence (P51168 1-640): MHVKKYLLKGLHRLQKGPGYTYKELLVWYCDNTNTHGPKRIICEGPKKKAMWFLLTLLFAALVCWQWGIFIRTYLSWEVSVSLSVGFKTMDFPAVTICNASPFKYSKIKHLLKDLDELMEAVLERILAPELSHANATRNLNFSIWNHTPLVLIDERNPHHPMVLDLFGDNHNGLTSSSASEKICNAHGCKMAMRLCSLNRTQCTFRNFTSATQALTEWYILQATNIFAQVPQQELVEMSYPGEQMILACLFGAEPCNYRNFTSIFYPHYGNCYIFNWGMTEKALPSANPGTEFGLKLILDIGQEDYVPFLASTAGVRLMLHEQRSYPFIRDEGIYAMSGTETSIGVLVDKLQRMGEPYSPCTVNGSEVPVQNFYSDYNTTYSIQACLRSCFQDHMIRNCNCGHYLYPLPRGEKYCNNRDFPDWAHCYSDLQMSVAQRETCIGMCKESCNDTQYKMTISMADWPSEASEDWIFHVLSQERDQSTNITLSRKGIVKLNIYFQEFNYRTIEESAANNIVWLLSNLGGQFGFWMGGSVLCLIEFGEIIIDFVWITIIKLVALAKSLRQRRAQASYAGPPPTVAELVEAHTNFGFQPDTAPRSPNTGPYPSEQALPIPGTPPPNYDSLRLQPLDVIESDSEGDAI
T1 sequence (P51170 1-649): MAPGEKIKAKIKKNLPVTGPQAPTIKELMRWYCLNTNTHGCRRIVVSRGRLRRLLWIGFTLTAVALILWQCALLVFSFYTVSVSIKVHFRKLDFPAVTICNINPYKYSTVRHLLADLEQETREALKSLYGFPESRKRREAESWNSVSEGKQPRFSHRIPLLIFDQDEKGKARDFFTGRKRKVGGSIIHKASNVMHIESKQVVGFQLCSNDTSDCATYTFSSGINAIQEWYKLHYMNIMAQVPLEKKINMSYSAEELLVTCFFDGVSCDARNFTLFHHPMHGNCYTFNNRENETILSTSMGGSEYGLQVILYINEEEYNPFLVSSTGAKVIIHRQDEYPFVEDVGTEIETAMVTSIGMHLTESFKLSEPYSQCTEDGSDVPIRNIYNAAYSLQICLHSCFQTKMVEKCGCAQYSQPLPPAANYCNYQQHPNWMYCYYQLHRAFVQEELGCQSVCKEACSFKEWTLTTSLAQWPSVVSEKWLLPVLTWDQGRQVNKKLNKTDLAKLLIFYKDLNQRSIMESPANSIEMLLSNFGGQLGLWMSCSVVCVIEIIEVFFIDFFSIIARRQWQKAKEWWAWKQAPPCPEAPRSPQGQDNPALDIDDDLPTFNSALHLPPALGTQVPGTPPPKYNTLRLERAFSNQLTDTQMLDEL
As to the kind of experiment: Sodium Channel ENaC Ussing Chamber Test (short circuit current). Type of assay: cell-based. To be noted: human primary bronchial epithelial cells at air-liquid interface; inhibition of short circuit current; compounds added to the apical side. Here is the method: Sodium Channel ENaC Ussing Chamber Test
Human primary bronchial epithelial cells differentiated at air-liquid interface (ALI) on snapwell permeable supports (MatTek Corporation, MA, USA, cat no AIR-100-SNP) were maintained at ALI culture in a humidified incubator at 37° C. and 5% CO2. Basolateral medium (MatTek Corporation, MA, USA cat no AIR-100-MM-ASY) was changed every second day. Mucus or liquid formed on the apical side was gently aspirated every second day to maintain viability and performance of the cells.
The transepithelial voltage between the luminal/apical and basolateral membrane were measured in the ussing chamber consisted of vertical, in-house manufactured ussing chambers, DVC-1000 V/C clamps with preamplifiers (World Precision Instruments), electrode kits (EK1, World Precision Instruments), Power Lab with Chart5 software, water bath with external circulation and carbogen gas distribution and regulation system. Electrodes used in the set up were casted manually using 4% agarose in 0.9% sterile NaCl according to the manufacturer's recommendation.
The ussing chambers were assembled with an empty snapwell membrane (Costar 3407) and electrodes contained in Kreb's buffer (SIGMA-ALDRICH cat no K3753) for one hour at 37° C. in presence of 95% oxygen and 5% carbon dioxide. After this equilibration step the system was compensated for fluid resistance and input offset.
The equilibrated chambers were reassembled with a snapwell containing ALI cells and after 20 minutes stabilisation cumulative doses of the compounds were added to the apical side of the membrane. After the final dose 10 μM Benzamil was added to reach maximum.
All test compounds, including the reference compound, were diluted from 10 mM stocks in 100% DMSO and added to opaque 96-well plates (Greiner, Cat No. 651201). Dilution series of 12 doses were prepared in DMSO, starting with 3 μM followed by 10 times dilution steps.
Chart5 for Windows software was used to measure the value of the short circuit current after each compound addition. The data was transferred into Excel and analysed using IDBS XLfit® 5.2 (ID Business Solutions Ltd). The molar concentration of test or reference compound producing 50% inhibition (curve IC50) was derived by fitting data to a 4-parameter logistic function of the form: y=(A+((B−A)/(1+(((10^C)/x)^D))))
A The bottom plateau of the curve, i.e. the final minimum y value
B The top of the plateau of the curve i.e. the final maximum y value
C The log10 x value at a y value of 50%.
What is called IC50 is the concentration at which inhibition is half-maximal. Read a low IC50 as higher potency. The compound `CCCCCCN(CCNC(=O)N1CCC(CNC[C@H](CNC(=O)c2nc(Cl)c(N)nc2N)Cc2ccccc2C)CC1)C[C@H](O)[C@@H](O)[C@H](O)[C@H](O)CO` [Example 3, 3,5-diamino-6-chloro-N—((R)-3-((1-(2-(hexyl((2S,3R,4R,5R)-2,3,4,5,6-pentahydroxyhexyl)amino)ethylcarbamoyl)piperidin-4-yl)methylamino)-2-(2-methylbenzyl)propyl)pyrazine-2-carboxamide] showed an IC50 of 79.4 pM.

For the compound `CCCCCCN(CCNC(=O)c1ccc(CCNC[C@H](CNC(=O)c2nc(Cl)c(N)nc2N)Cc2ccccc2C)cc1)C[C@H](O)[C@@H](O)[C@H](O)CO` [Example 13, 3,5-diamino-6-chloro-N—((R)-3-((4-((2-(hexyl((2S,3R,4R)-2,3,4,5-tetrahydroxypentyl)amino)ethyl)carbamoyl)phenethyl)amino)-2-(2-methylbenzyl)propyl)pyrazine-2-carboxamide Dihydrochloride], the IC50 was 79.4 pM.

`CCCCCCN(CCNC(=O)c1ccc(CNC[C@H](CNC(=O)c2nc(Cl)c(N)nc2N)Cc2ccccc2C)cc1)C[C@H](O)[C@@H](O)[C@H](O)[C@H](O)CO` [Example 10, 3,5-diamino-6-chloro-N—((R)-3-((4-((2-(hexyl((2S,3R,4R,5R)-2,3,4,5,6-pentahydroxyhexyl)amino)ethyl)carbamoyl)benzyl)amino)-2-(2-methylbenzyl)propyl)pyrazine-2-carboxamide] had an IC50 of 2510 pM.

Consider `Cc1ccccc1C[C@H](CNCC1CCN(C(=O)CCNC[C@H](O)[C@@H](O)[C@H](O)[C@H](O)CO)CC1)CNC(=O)c1nc(Cl)c(N)nc1N` [Example 7, 3,5-diamino-6-chloro-N—((R)-2-(2-methylbenzyl)-3-((1-(3-((2S,3R,4R,5R)-2,3,4,5,6-pentahydroxyhexylamino)propanoyl)piperidin-4-yl)methylamino)propyl)pyrazine-2-carboxamide], for which the IC50 was 1260 pM.

For the compound `CCCCCCN(CCNC(=O)c1ccc(CNC[C@@H](CNC(=O)c2nc(Cl)c(N)nc2N)Cc2ccccc2C)cc1)C[C@H](O)[C@@H](O)[C@H](O)CO` [Example 14, 3,5-diamino-6-chloro-N—((S)-3-((4-((2-(hexyl((2S,3R,4R)-2,3,4,5-tetrahydroxypentyl)amino)ethyl)carbamoyl)benzyl)amino)-2-(2-methylbenzyl)propyl)pyrazine-2-carboxamide Acetic Acid], inhibition was half-maximal at 31600 pM (IC50).

For the compound `Cc1ccccc1C[C@H](CNCC1CCN(C(=O)CCNC[C@H](O)[C@@H](O)[C@H](O)CO)CC1)CNC(=O)c1nc(Cl)c(N)nc1N` [Example 1, 3,5-diamino-6-chloro-N—((R)-2-(2-methylbenzyl)-3-(((1-(3-(((2S,3R,4R)-2,3,4,5-tetrahydroxypentyl)amino)propanoyl)piperidin-4-yl)methyl)amino)propyl)pyrazine-2-carboxamide], 316 pM corresponded to half-maximal inhibition (IC50).

Consider `CCCCCCN(CCCC(=O)N1CCC(CNC[C@H](CNC(=O)c2nc(Cl)c(N)nc2N)Cc2ccccc2C)CC1)C[C@H](O)[C@@H](O)[C@H](O)[C@H](O)CO` [Example 6, 3,5-diamino-6-chloro-N—((R)-3-((1-(4-(hexyl((2S,3R,4R,5R)-2,3,4,5,6-pentahydroxyhexyl)amino)butanoyl)piperidin-4-yl)methylamino)-2-(2-methylbenzyl)propyl)pyrazine-2-carboxamide], for which 316 pM corresponded to half-maximal inhibition (IC50).

The compound `CCCCCCN(CCNC(=O)c1ccc(CCNC[C@H](CNC(=O)c2nc(Cl)c(N)nc2N)Cc2ccccc2C)cc1)C[C@H](O)[C@@H](O)[C@H](O)[C@H](O)CO` [Example 12, 3,5-diamino-6-chloro-N—((R)-3-((4-((2-(hexyl((2S,3R,4R,5R)-2,3,4,5,6-pentahydroxyhexyl)amino)ethyl)carbamoyl)phenethyl)amino)-2-(2-methylbenzyl)propyl)pyrazine-2-carboxamide Dihydrochloride] gave an IC50 of 251 pM.

The compound `CCCCCCN(CCNC(=O)c1ccc(CNC[C@H](CNC(=O)c2nc(Cl)c(N)nc2N)Cc2ccccc2C)cc1)C[C@@H](O)[C@@H](O)[C@H](O)[C@H](O)CO` [Example 9, 3,5-diamino-6-chloro-N—((R)-3-((4-((2-(hexyl((2R,3R,4R,5R)-2,3,4,5,6-pentahydroxyhexyl)amino)ethyl)carbamoyl)benzyl)amino)-2-(2-methylbenzyl)propyl)pyrazine-2-carboxamide Dihydrochloride] showed an IC50 of 2510 pM.

`CCCCCCN(CCC(=O)N1CCC(CNC[C@H](CNC(=O)c2nc(Cl)c(N)nc2N)Cc2ccccc2C)CC1)C[C@H](O)[C@@H](O)[C@H](O)[C@H](O)CO` [Example 4, 3,5-diamino-6-chloro-N—((R)-3-((1-(3-(hexyl((2S,3R,4R,5R)-2,3,4,5,6-pentahydroxyhexyl)amino)propanoyl)piperidin-4-yl)methylamino)-2-(2-methylbenzyl)propyl)pyrazine-2-carboxamide] gave an IC50 of 631 pM.

`CCCCCCN(CCC(=O)N1CCC(CNC[C@H](CNC(=O)c2nc(Cl)c(N)nc2N)Cc2ccccc2C)CC1)C[C@@H](O)[C@@H](O)[C@H](O)[C@H](O)CO` [Example 8, 3,5-diamino-6-chloro-N—((R)-3-((1-(3-(hexyl((2R,3R,4R,5R)-2,3,4,5,6-pentahydroxyhexyl)amino)propanoyl)piperidin-4-yl)methylamino)-2-(2-methylbenzyl)propyl)pyrazine-2-carboxamide] had an IC50 of 316 pM.
